From ChEMBL document CHEMBL1157539, “Thousands of chemical starting points for antimalarial lead identification” (Nature, 2010)

Test system: Plasmodium falciparum
Assay: GSK_TCMDC: Inhibition of Plasmodium falciparum 3D7 in whole erythrocytes, using parasite LDH activity as an index of growth.
Format: functional, organism-based
Conditions: Plasmodium falciparum, 3D7

Row | Compound | XC50 [nM]
1 | C=C1C(C(=O)OCC)=CN(CC)c2cc(O[C@H]3CCN(C(=O)OC(C)(C)C)C3)ccc21 | 548
2 | COc1ccc2[nH]cc(C3=CCN(Cc4ccccc4)CC3)c2c1 | 569
3 | C[C@@H](CC1CCCCC1)NCc1ccccc1O | 932
4 | Cc1ccc(NC(=O)c2ccnc(N3CCN(c4ccncc4)CC3)c2)cc1F | 873
5 | NCCC(=O)Nc1ccc(-c2cnc3[nH]cc(-c4ccc(C(=O)O)cc4)c3c2)cn1 | 842
6 | CCCCCCCN1CC[C@@H](CCCc2ccnc3ccc(OCCC4CCNCC4)cc23)[C@@H](CC)C1 | 610
7 | CC(C)[C@H]1CC[C@H](C)C[C@@H]1OC(=O)N[C@@H](Cc1ccc(O)cc1)C(=O)NC1CCN(Cc2ccc(OCCCN(C)C)cc2)C1 (stereo not given in full) | 764
8 | COc1cccc(-c2ccc3c(-c4ccc(F)cc4)cnc(N)c3c2)c1 | 807
9 | O=C(NCc1cccc(F)c1)Nc1ccc(-c2ccc(-c3nc4cc(C(F)(F)F)ccc4[nH]3)cc2)cc1 | 769
10 | Oc1ccccc1CNC1CCCCC1NCc1ccccc1O (stereo not given) | 950
11 | CC(C)CCNC(=O)c1cnc2c(O)cccc2c1Nc1cccc(NC(=O)c2ccc(F)cc2)c1 | 913
12 | CC(C)(C)c1ccc(-c2cc3c(ccc4nc(N)nc(N)c43)[nH]2)cc1 | 113
13 | N=C(N)NC(=O)Nc1cc(Br)c(Cl)c(C(F)(F)F)c1 | 758
14 | O=C(NCc1cccs1)[C@H](Cc1ccccc1)Nc1ccnc(NCC2CCCCC2)n1 | 1050
15 | O=C(NCCCCCN1CCCN(C(=O)Nc2ccc(Cl)c(C(F)(F)F)c2)CC1)C1CC1c1ccc(Cl)c(Cl)c1 (stereo not given) | 852
16 | O=C(CSc1nc(-c2ccccc2Cl)ns1)Nc1ccc2c(c1)OCO2 | 988
17 | CN(CCCN(C)c1cc(NC(=O)c2ccc(F)cc2)ccn1)Cc1cccc(O)c1 | 1210
18 | CC(C)c1sc(N2CCN(C)CC2)nc1C(=O)Nc1ccc(F)cc1C(F)(F)F | 190
19 | CC(C)N1CCN(C(=O)c2ccc(CNCCCN3CCN(c4cccc(Cl)c4Cl)CC3)s2)CC1 | 716
20 | CC1(C)CN2CCCC2c2cc(NC(=O)/C=C/c3ccccc3Cl)ccc21 (stereo not given) | 991
21 | CS(=O)(=O)NCCCNCc1cccc(-c2ccc(-c3nc4cc(C(F)(F)F)ccc4[nH]3)cc2)c1 | 996
22 | N=C(N)Nc1nc(-c2cccc(NC(=O)NCc3cccc4ccccc34)c2)cs1 | 841
23 | CCCCNCc1ccc(OCc2cccc(COc3ccc(CNCCCC)cc3I)c2)c(I)c1 | 1120
24 | O=c1c2ccc(Sc3ccccn3)cc2n(-c2ccccc2)c2cc(Sc3ccccn3)ccc12 | 203
25 | CCOc1cc(C)ccc1C1CCN(CCCCNC(=O)c2coc(-c3ccc(Cl)cc3)c2)CC1 | 914

Row | Compound | XC50 [nM]
26 | COc1cc2ncnc(Nc3ccc(OCc4ccccc4)c(I)c3)c2cc1OC | 712
27 | CCCCC(=O)Nc1nonc1-c1ccc(OCC)c(OCC)c1 | 912
28 | CCc1ccc(NC(=O)N(CCCn2ccnc2)Cc2csc(-c3ccc(CNCc4ccccc4)cc3)n2)cc1 | 757
29 | CCCNCc1ccc(-c2ccc(CN(CCOC)C(=O)COc3ccccc3Cl)cc2)nc1 | 912
30 | COc1cccc(-c2nn(C)c3sc(C(=O)NCCN(C)Cc4ccccc4)cc23)c1 | 814
31 | O=C(CCOc1ccccc1)NCC1CCCO1 (stereo not given) | 1000
32 | COc1ccc(N2CCN(CCCCNC(=O)c3ccc(NC(=O)c4ccc(Cl)cc4)cc3)CC2)c(C)c1 | 758
33 | CCN(CC(C)O)C(=O)c1ccc(-c2cccc(-c3nc4cccc(C)c4[nH]3)c2)cc1 (stereo not given) | 639
34 | COCCNCc1cccc(-c2ccc3c(Nc4ccc(Oc5ccccc5)cc4)ccnc3c2)c1 | 517
35 | Cc1cccc2nc(-c3cccc(-c4cccc(CNC(C)C)c4)c3)[nH]c12 | 336
36 | O=C(NCC1CC1)C1CCN(C(c2ccccc2)c2ccc(Cl)c(Cl)c2)CC1 (stereo not given) | 369
37 | CCN(CC)CCOc1ccc(C(O)(C#CC(O)(c2ccccc2)c2ccc(OCCN(CC)CC)cc2)c2ccccc2)cc1 (stereo not given) | 1310
38 | N#Cc1ccc2c(c1)CCN(CCC1CCC(NC(=O)/C=C/c3cccc4cc[nH]c34)CC1)CC2 (stereo not given) | 1090
39 | COc1cccc2c(NN=Cc3cccc(F)c3)ccnc12 | 932
40 | CCc1cc(NC2CCN(C)CC2)nc(Nc2cccc(OC)c2)n1 | 856
41 | COc1cccc(CNC[C@@H](O)[C@H](Cc2ccccc2)NC(=O)c2cc(C3CCCC3)cc(N3CCCCS3(=O)=O)c2)c1 | 599
42 | O=C(c1ccc(F)cc1)N1CCOC(CCN2CCC(c3ccccc3)CC2)(c2ccc(Cl)c(Cl)c2)C1 (stereo not given) | 749
43 | CCCC(CNC(=O)c1cc2c(Cl)cc(Cl)cc2[nH]1)CNc1cc(=O)c2ccccc2[nH]1 (stereo not given) | 903
44 | Cc1nc(C)c(-c2ccc(Oc3ccc(OC(F)(F)F)cc3)cc2)c(OC(=O)N(CCNC(C)C)C(C)C)c1Br | 171
45 | Clc1nc(Cl)c2c(ccn2Cc2ccccc2)n1 | 787
46 | NC(=O)c1ccccc1OCC(=O)Nc1cccc(-c2ccc(-c3nc4cc(C(F)(F)F)ccc4[nH]3)cc2)c1 | 647
47 | N#Cc1ccc(CN2CCC(Oc3ccc(NC(=O)c4ccco4)cc3Cl)CC2)cc1 | 379
48 | O=C(/C=C/c1ccccc1F)NC1CCC(CCN2CCc3ccc(-c4cccnc4)cc3CC2)CC1 (stereo not given) | 900
49 | O=c1cc(NCCCNCc2scc(I)c2I)[nH]c2ccccc12 | 586
50 | O=C(/C=C/c1ccc(Cl)c(Cl)c1)NCCCCCCN1CCCN(C(=O)Nc2ccc(C(F)(F)F)cc2)CC1 | 579

Row | Compound | XC50 [nM]
51 | O=C(Nc1ccc(Br)cc1)N(CCN1CCOCC1)CC(O)COCc1ccc(Cl)c(Cl)c1 (stereo not given) | 929
52 | COC(=O)c1sc2ccccc2c1NC(=O)c1ccc(C)c(C)c1 | 1070
53 | Cc1noc(C)c1-c1ccc2c(Nc3ccccc3C(C)(C)C)c(C(=O)NCc3ccc(C(F)(F)F)cc3)cnc2c1 | 762
54 | COc1cc(NC(=O)c2ccc3oc4ccccc4c3c2)ccc1OCCN1CCCCC1 | 924
55 | FC(F)(F)c1ccc2[nH]c(-c3ccc(-c4cccc(CNCc5ccccc5)c4)s3)nc2c1 | 153
56 | O=C(Nc1cccc(F)c1)NC1CCN(c2ccnc3cc(Cl)ccc23)C1 (stereo not given) | 189
57 | Fc1ccc(Nc2ccnc3cc(I)ccc23)c(Cl)c1 | 1080
58 | c1ccc(-n2ncc(CNCc3ccc(-c4cccc(-c5nc6ccccc6[nH]5)c4)cc3)n2)cc1 | 1230
59 | Cc1noc(C)c1-c1ccc2c(Nc3ccccc3C(C)(C)C)c(C(=O)NCc3ccc4c(c3)OCO4)cnc2c1 | 912
60 | Cc1ccc(Nc2nc(N)c3ccccc3n2)cc1 | 839
61 | O=c1[nH]c2c(cc1CNC1CCCCC1)c(-c1ccc(F)cc1)nn2-c1ccccc1 | 804
62 | Cc1ccccc1CNc1noc(-c2c(-c3ccccc3)noc2C)n1 | 902
63 | CC(C)NCc1ccc(-c2ccc(-c3nc4cc(C(F)(F)F)ccc4[nH]3)cc2)cc1 | 266
64 | OC(CNCCCc1ccccc1)c1cc(OCc2ccccc2)cc(OCc2ccccc2)c1 (stereo not given) | 851
65 | CNC(=O)CSc1nnc(-c2ccc(C)cc2)c(-c2ccc(C)cc2)n1 | 600
66 | NC1CCCN(Cc2ccc(-c3ccc(-c4nc5cc(F)ccc5[nH]4)s3)cc2)C1 (stereo not given) | 177
67 | Nc1nc(N)c2c(ccc3nn(S(=O)(=O)N4CCCC4)cc32)n1 | 96.6
68 | COc1ccc(NC(=O)c2ccc(C=Cc3ccc(C(F)(F)F)cc3)cc2)cc1N1CCN(C)CC1 | 421
69 | O=C(C=Cc1ccc(Cl)c(Cl)c1)NCCCCCN1CCC(CCNC(=O)/C=C/c2ccccc2)CC1 | 783
70 | CC(C)CCn1c(Sc2ccc([N+](=O)[O-])cc2C(F)(F)F)nnc1-c1ccccc1Cl | 919
71 | CNC(=O)c1c(NC(=O)c2cccs2)sc2c1CCCC2 | 818
72 | OC1(c2ccc(Cl)c(C(F)(F)F)c2)CCN(CCOC2c3ccccc3CSc3ccc(Cl)cc32)CC1 (stereo not given) | 799
73 | CCCCCCOc1ccc2ccccc2c1CNCCCCCCNCc1c(OCCCCCC)ccc2ccccc12 | 1060
74 | CC(C)c1ccc(NC(S)=NN=Cc2ccccn2)cc1 | 724
75 | CCCN(CCC)CCCNc1ccc(C(=O)Nc2ccc(C(C)C)cc2)cc1[N+](=O)[O-] | 709

Row | Compound | XC50 [nM]
76 | CN1CCCC(COc2cc3c(cc2Br)CCN3C(=O)Nc2ccc(-c3ccncc3)c(Cl)c2)C1 (stereo not given) | 234
77 | c1cc(CN2CCN(c3ccncc3)CC2)cc(-c2ccc(-c3nc4ccccc4[nH]3)cc2)c1 | 153
78 | Cc1cccc2nc(-c3cccc(-c4ccc(NC(=O)Nc5cccc(C#N)c5)cc4)c3)[nH]c12 | 187
79 | COc1ccc2c(=NN=Cc3cccnc3)cc(C)[nH]c2c1 | 993
80 | CCOc1cc(C)ccc1C1CCN(CCCCNC(=O)c2ccc(-c3ccc(Cl)cn3)cc2)CC1 | 1610
81 | COc1ccc(-c2nc(NC(=O)Cc3cccc(OC)c3)sc2C)cc1 | 237
82 | O=c1c2sc(-c3ccc(Cl)cc3)cc2ncn1Cc1ccc(OCCN2CCCC2)c2ccccc12 | 252
83 | CN(CC(=O)Nc1ccc(F)c(F)c1F)c1ncnc2sc(-c3ccccc3)cc12 | 874
84 | Cc1nc(-c2ccc(-c3ccc(C(=O)Nc4ccc(I)c(OCC5CCCN5C)c4)cc3)c(C)c2)no1 (stereo not given) | 33
85 | C(=N\Nc1nccc2sc(-c3cccnc3)cc12)/c1ccncc1 | 213
86 | O=C1COc2ccc(S(=O)(=O)N3CCC[C@@H]3CCN3CCC(c4c[nH]c5cnccc45)CC3)cc2N1 | 865
87 | O=C(Nc1ccc(OC2CCN(Cc3ccc(F)cc3)CC2)c(Cl)c1)c1ccoc1 | 1180
88 | CCCCNc1c(C(=O)OCC)c(C)nc2c1[nH]c1ccccc12 | 680
89 | Fc1ccc(Nc2ccnc3cc(-c4cccc(CNCCN5CCOCC5)c4)ccc23)c(Cl)c1 | 142
90 | CC1CC(NCCCNc2cc(=O)c3ccccc3[nH]2)c2c(Cl)c(Cl)cc(Cl)c21 (stereo not given) | 981
91 | CNCc1ccc(-c2ccc3ccnc(N)c3c2)cc1 | 262
92 | N#Cc1ccc(N(CC(=O)NCCc2ccccc2)CC2CC2)c2ccccc12 | 734
93 | Cc1cc(N[C@@H](Cc2ccccc2)C(=O)NC2CCCC2)nc(NCCCOC(C)C)n1 | 1480
94 | Cc1ccc(C(c2nnnn2C2CCCC2)N(Cc2ccco2)Cc2ccccc2Cl)cc1 (stereo not given) | 959
95 | Cc1ccc(Sc2ccc(NC(=O)CN3CCN(C(=O)c4ccco4)CC3)cc2)cc1C | 911
96 | CCCc1ccccc1Nc1nc(C)cc(N(CC)CCCN2CCCCC2)n1 | 622
97 | Cc1nc(C)c(-c2ccc(Oc3ccc(OC(F)(F)F)cc3)cc2)c(OC(=O)c2ccc(CN(C)C)cc2)c1Cl | 137
98 | Cc1nc(-c2nc(NCCc3c(C)noc3C)ncc2-c2ccsc2)sc1C | 256
99 | O=C(Nc1nc(-c2ccccn2)cs1)c1ccc(S(=O)(=O)N2CCc3ccccc32)cc1 | 830
100 | O=S(=O)(NCCN1CCCC1)c1ccc(-c2cccc(CNCCc3cccs3)c2)cc1 | 928
